Assay results from ChEMBL document CHEMBL1144216, “Suppression of cytokine production in lipopolysaccharide-stimulated mouse macrophages by novel cationic glucosamine derivative involves down-regulation of NF-kappaB and MAPK expressions” (2008).
The source made the active and inactive calls. The rule behind the calls is not given here.

Legend:
RAW264.7 [1] = assay: Inhibition of LPS-stimulated IL1-beta production in mouse RAW264.7 cells assessed as IL1-beta level at 50 ug/ml treated 1 hr before LPS challenge after 24 hrs by ELISA; format: functional
RAW264.7 [2] = assay: Reduction of LPS-induced NF-kappaB translocation in mouse RAW264.7 cells assessed as NF-kappaB p65 protein expression level at 60 ug/mL by Western blotting; format: functional, cell-based
RAW264.7 [3] = assay: Increase in IkappaB protein expression in mouse RAW264.7 cells by Western blotting relative to control; format: functional, cell-based
RAW264.7 [4] = assay: Inhibition of LPS-stimulated TNFalpha production in mouse RAW264.7 cells at 50 ug/ml treated 1 hr before LPS challenge after 24 hrs by ELISA; format: functional
RAW264.7 [5] = assay: Effect on level of NIK in mouse RAW264.7 cells by Western blotting; format: functional, cell-based
RAW264.7 [6] = assay: Inhibition of LPS-stimulated PGE2 production in mouse RAW264.7 cells at 50 ug/ml treated 1 hr before LPS challenge after 24 hrs by ELISA; format: functional
RAW264.7 [7] = assay: Reduction of LPS-induced NF-kappaB translocation in mouse RAW264.7 cells assessed as NF-kappaB p65 protein expression level at 40 ug/mL by Western blotting; format: functional, cell-based
RAW264.7 [8] = assay: Inhibition of LPS-stimulated IL6 production in mouse RAW264.7 cells at 50 ug/ml treated 1 hr before LPS challenge after 24 hrs by ELISA; format: functional, cell-based
RAW264.7 [9] = assay: Inhibition of LPS-stimulated TNFalpha production in mouse RAW264.7 cells at 60 ug/mL by Western blot analysis; format: functional, cell-based
RAW264.7 [10] = assay: Inhibition of IKK protein expression in mouse RAW264.7 cells by Western blotting; format: functional, cell-based
RAW264.7 [11] = assay: Inhibition of LPS-stimulated JNK level in mouse RAW264.7 cells by Western blotting; format: functional, cell-based
RAW264.7 [12] = assay: Inhibition of LPS-induced NF-kappaB promoter activity in mouse RAW264.7 cells by luciferase reporter assay; format: functional, cell-based
RAW264.7 [13] = assay: Inhibition of LPS-stimulated IL1-beta production in mouse RAW264.7 cells at 60 ug/mL by Western blot analysis; format: functional, cell-based
RAW264.7 [14] = assay: Inhibition of LPS-stimulated ERK expression in mouse RAW264.7 cells by Western blotting; format: functional, cell-based
RAW264.7 [15] = assay: Inhibition of LPS-stimulated p38MAPK expression in mouse RAW264.7 cells by Western blotting; format: functional, cell-based
RAW264.7 [16] = assay: Inhibition of LPS-stimulated IL6 production in mouse RAW264.7 cells at 60 ug/mL by Western blot analysis; format: functional, cell-based
RAW264.7 [17] = assay: Inhibition of LPS-stimulated PGE2 production in mouse RAW264.7 cells treated 1 hr before LPS challenge after 24 hrs by ELISA; format: functional, cell-based
RAW264.7 [18] = assay: Inhibition of LPS-stimulated IL1-beta production in mouse RAW264.7 cells treated 1 hr before LPS challenge after 24 hrs by ELISA; format: functional, cell-based
RAW264.7 [19] = assay: Inhibition of LPS-stimulated TNFalpha production in mouse RAW264.7 cells treated 1 hr before LPS challenge after 24 hrs by ELISA; format: functional, cell-based
RAW264.7 [20] = assay: Inhibition of LPS-stimulated IL6 production in mouse RAW264.7 cells treated 1 hr before LPS challenge after 24 hrs by ELISA; format: functional, cell-based

## C[N+](C)(C)CC(O)CN[C@@H]1[C@@H](O)[C@H](O)[C@@H](CO)O[C@H]1O.[Cl-] (stereo not given in full)
RAW264.7 [1]
  Activity: 100 pg/mL
RAW264.7 [2]
  Activity: Active
RAW264.7 [3]
  Activity: Active
RAW264.7 [4]
  inhibition at 50 µg/mL: 45%
RAW264.7 [5]
  Activity: inactive
RAW264.7 [6]
  inhibition at 50 µg/mL: 50%
RAW264.7 [7]
  Activity: Active
RAW264.7 [8]
  Activity: Active
RAW264.7 [9]
  Activity: Active
RAW264.7 [10]
  Activity: Active
RAW264.7 [11]
  Activity: Dose-dependent effect
RAW264.7 [12]
  Activity: Dose-dependent effect
RAW264.7 [13]
  Activity: Active
RAW264.7 [14]
  Activity: inactive
RAW264.7 [15]
  Activity: Dose-dependent effect
RAW264.7 [16]
  Activity: Active

## N[C@H]1C(O)O[C@H](CO)[C@@H](O)[C@@H]1O (stereo not given in full)
RAW264.7 [17]
  Activity: Dose-dependent effect
RAW264.7 [18]
  Activity: Dose-dependent effect
RAW264.7 [19]
  Activity: Dose-dependent effect
RAW264.7 [20]
  Activity: Dose-dependent effect
